{"source": "patent US10092537B2", "about": "“Use for PAI-1 inhibitor” (RENASCIENCE CO., LTD., priority 2013, dated 2018)", "key": {"[1]": {"system": "long-term hematopoietic stem cells", "assay": "Long-term hematopoietic stem cells: 15 weeks after transplantation, successive transplantation, limiting dilution (Experimental Example 10)", "format": "in vivo, mice", "description": "15 weeks after bone-marrow transplantation, the control group, tPA group, and compound a-administered group (12 mice for each group) were measured for the number of bone-marrow mononucleic cells (BM MNC), frequency and absolute number of Lin-SLAM cells, and frequency of and absolute number LSK-CD34 negative cells.\n15 weeks after the initial bone-marrow transplantation, bone marrow was collected from mice of the control group, tPA group, and compound a-administered group, and the collected bone marrow was transplanted into other mice (successive transplantation). In the successive transplantation, none of physiological saline, tPA, or compound a was administered.\n12 weeks after successive transplantation, the chimerism of donor-derived bone marrow hematopoietic cells was measured.\nTo compare the frequency of long-term hematopoietic stem cell, donor-derived bone marrow to be transplanted first was diluted and transplanted, and the effect of PAI-1 inhibition was evaluated by a limiting dilution technique.\nThe collected bone-marrow mononucleic cells were diluted such that Ly5.1 positive bone-marrow mononucleic cell count gave 2×10E3, 6×10E3, 2×10E4, and 6×10E4, and then Ly5.1 positive bone-marrow mononucleic cells of each count were transplanted, together with 5×10E5 Ly5.2 positive competitor cells, into 20 mice. For transplantation, mice were divided into 2 groups, i.e., a compound a-administered group to which compound a was to be administered and a control group to which physiological saline was to be administered (8 groups in total), and the chimerism (the positive rate of Ly5.1 positive bone-marrow mononucleic cells) was measured 12 weeks after the transplantation.\nFurther, bone marrow was collected from the control groups and the compound a-administered groups to both of which Ly5.1 positive bone-marrow mononucleic cells of the above-described numbers were transplanted, and the collected bone marrow was successively transplanted into other mice. At the time successive transplantation was conducted, neither physiological saline nor the compound was administered. 12 weeks after the successive transplantation, bone marrow was collected from the mice, and Ly5.1 positive cells in the bone-marrow mononucleic cells were measured.\nAfter successive transplantation, the frequency (CRU frequency) of hematopoietic stem cells having the hematopoietic regeneration capacity was calculated."}, "hematopoietic stem cells [2]": {"system": "hematopoietic stem cells", "assay": "Cell cycle (Ki-67, BrdU) and apoptosis (Annexin V) of bone-marrow cells 1 week after bone-marrow transplantation (Experimental Example 9)", "format": "in vivo, mice", "description": "In accordance with Experimental Example 7 (1), bone-marrow transplantation was conducted, and after the transplantation, physiological saline (control group), tPA (tPA-administered group), or compound a (compound a-administered group) was administered.\n1 week after bone-marrow transplantation, the bone marrow was collected, and Ki-67 protein, which is a cell division marker, was immunostained with anti-Ki-67-FITC antibody (BD Bioscience) to analyze the cells in the cell-division cycle by FACSCalibur.\nSubsequently, the number of Ki-67 positive cells in the cells of LSK fraction was examined to confirm that the proliferation of hematopoietic stem cells is promoted by compound a.\nIn addition, to more accurately detect the cells that moved to the S phase, 5-bromo-2-deoxyuridine (BrdU)-FITC (BD Pharmingen) was administered to the control group, tPA group, and compound a-administered group 1 week after bone-marrow transplantation, 3 hours before the collection of bone marrow. 6 mice were used for each group.\nBecause BrdU is a thymine derivative, BrdU, substituting for thymine, is incorporated into genomic DNA or the like during DNA replication. BrdU more specifically reflects the S phase than Ki-67 protein.\n1 week after bone-marrow transplantation, bone marrow was collected from the control group, tPA group, and compound a-administered group (6 mice for each group), and Annexin V, which appears specifically in apoptosis, was detected with anti-Annexin V antibody immunostaining."}, "hematopoietic stem cells [3]": {"system": "hematopoietic stem cells", "assay": "Hematopoietic recovery after total-body radiation (9Gy) and bone-marrow transplantation (Experimental Example 4)", "format": "in vivo, C57BI6/J mice", "description": "Specifically, C57BI6/J mice (recipient), which were wild-type inbred strain mice, were treated with total-body radiation (9Gy), and four hours later, bone-marrow cells were transplanted into the mice. Concurrently with the transplantation, compound a was administered to the mice as a test compound via oral gavage (dosage 100 mg/kg), and compound a was daily administered orally for 5 consecutive days (administered group).\nThe survival rate of the mice after bone-marrow transplantation was tracked over time (each group: n=15).\nBone-marrow cells collected from the mice (administered group and control group) 7 days after bone-marrow transplantation were measured for the presence of Lin-SLAM cells with a flow cytometric analyzer (see FIG. 5A). Each test was independently conducted (each group: n=6).\nThe proportion (%) of Lin-SLAM cells in the whole bone marrow, the total number of Lin-SLAM cells in the bone marrow, the proportion (%) of LSK-CD34 negative cells in the bone marrow, and the total number of LSK-CD34 negative cells in the bone marrow were measured.\nThe bone-marrow cells collected from the mice (administered group, control group) 7 days after bone-marrow transplantation were measured for the plasminogen (Plg) mRNA expression level, tPA mRNA expression level, and PAI-1 mRNA expression level.\nBone marrow was collected from the mice (administered group and control group) 13 weeks after bone-marrow transplantation, and the following was measured: the total number of whole bone marrow (FIG. 7A), the proportion (%) of LSK-CD34 negative cells in the whole bone marrow (FIG. 7B), the total number of CD34(−)KSL cells in the whole bone marrow (FIG. 7C), the proportion (%) of Lin-SLAM cells in the whole bone marrow (FIG. 7D), the total number of Lin-SLAM cells in the whole bone marrow (FIG. 7E), the proportion (%) of bone marrow differentiated cells (CD45.1/Mac1/Gr1 cell) in the whole bone marrow (FIG. 7F), the total number of bone marrow differentiated cells (CD45.1/Mac1/Gr1 cell) in the whole bone marrow (FIG. 7G), the proportion (%) of B-cell lymphoid differentiated cells (CD45.1/B 220 cell) in the whole bone marrow (FIG. 7H), and the total number of B cell lymphoid differentiated cells (CD45.1/B 220 cell) in the whole bone marrow (FIG. 7I). The results are shown in the above-stated figures."}, "[4]": {"assay": "Pharmacokinetics after oral gavage (Experimental Example 6)", "format": "in vivo, male Wister rats", "settings": "male, Wistar, rat, 50 mg/kg oral gavage, plasma, reversed-phase HPLC", "description": "Compound a (50 mg/kg) was administered to male Wister rats (180-200 g) via oral gavage. Before administration (0 h), and 1, 2, 6 and 24 hours after the administration, blood was collected, and the concentration of compound a in plasma of each […] was analyzed by reversed-phase HPLC. The time at which the maximum drug concentration in blood is observed (Tmax), the maximum drug concentration (Cmax), and half-life (T½) were determined."}, "[5]": {"settings": "100 mg/kg oral gavage, 5 consecutive days, days 2, 7, 21 after bone-marrow transplantation, versus vehicle control"}, "[6]": {"settings": "100 mg/kg oral, 7 days after bone-marrow transplantation"}}}
{"smiles": "O=C(COCC(=O)N1CCN(C(c2ccccc2)c2ccccc2)CC1)Nc1ccc(Cl)cc1C(=O)[O-].[Na+]", "note": "[Example 30 (compound group 2), 2-(2-(2-(4-benzhydrylpiperazin-1-yl)-2-oxoethoxy)acetamido)-5-chlorobenzoic acid sodium salt]", "values": [{"measurement": "chimerism of donor-derived bone marrow hematopoietic cells", "setting": "[1]; 12 weeks after successive transplantation, compound given only at first transplantation", "result": "marked increase"}, {"measurement": "number of bone-marrow mononucleic cells, frequency and absolute number of LSK-CD34 negative cells and of Lin-SLAM cells", "setting": "[1]; 15 weeks after bone-marrow transplantation, among control, tPA and compound a groups", "result": "highest values"}, {"measurement": "frequency of hematopoietic stem cells having the hematopoietic regeneration capacity, versus control", "setting": "[1]; after successive transplantation", "result": "≥ 6", "unit": "time higher"}, {"measurement": "chimerism (positive rate of Ly5.1 positive bone-marrow mononucleic cells)", "setting": "[1]; limiting dilution 2×10E3 to 6×10E4 cells, 12 weeks after transplantation", "result": "significant increases"}, {"measurement": "proportion of cells that were induced apoptosis (Annexin V)", "setting": "hematopoietic stem cells [2]; compared with control group", "result": "decrease"}, {"measurement": "cells in the S phase (BrdU incorporated into LSK cells)", "setting": "hematopoietic stem cells [2]; control group 18.1%", "result": 21.4, "unit": "%"}, {"measurement": "Ki-67 positive, cells classified into the LSK fraction taken as 100%", "setting": "hematopoietic stem cells [2]; control group 43.3%", "result": 63.9, "unit": "%"}, {"measurement": "cell count of cells at the S-G2-M phase (Ki-67) in bone-marrow mononucleic cells", "setting": "hematopoietic stem cells [2]; control group 44.2%", "result": 64.2, "unit": "%"}, {"measurement": "cell count of cells at the G0/G1 phase (Ki-67) in bone-marrow mononucleic cells", "setting": "hematopoietic stem cells [2]; control group 55.8%", "result": 35.8, "unit": "%"}, {"measurement": "cKitL level in plasma", "setting": "hematopoietic stem cells [3]; [5]", "result": "significantly higher"}, {"measurement": "plg level in plasma", "setting": "hematopoietic stem cells [3]; [5]", "result": "significantly higher"}, {"measurement": "tPA level in plasma", "setting": "hematopoietic stem cells [3]; [5]", "result": "significantly higher"}, {"measurement": "total MMP-9 level in plasma", "setting": "hematopoietic stem cells [3]; [5]", "result": "significantly higher"}, {"measurement": "white blood cell count in the peripheral blood", "setting": "hematopoietic stem cells [3]; [5]", "result": "significantly higher"}, {"measurement": "survival rate of the mice after bone-marrow transplantation", "setting": "hematopoietic stem cells [3]; 100 mg/kg oral, concurrently with transplantation and 5 consecutive days, versus control group", "result": "significantly higher"}, {"measurement": "whole bone marrow cell number; proportion and total number of LSK-CD34 negative cells, Lin-SLAM cells, bone marrow differentiated cells, B-cell lymphoid differentiated cells", "setting": "hematopoietic stem cells [3]; 100 mg/kg oral, 13 weeks after bone-marrow transplantation, versus vehicle control", "result": "significantly higher"}, {"measurement": "frequency of hematopoietic stem cells (Lin-SLAM cells, LSK-CD34 negative cells in bone marrow)", "setting": "hematopoietic stem cells [3]; [6]", "result": "increases"}, {"measurement": "mRNA expression of plasminogen, tissue-type plasminogen activator, and plasminogen activator inhibitor 1 in bone marrow", "setting": "hematopoietic stem cells [3]; [6]", "result": "induces"}, {"measurement": "Cmax", "setting": "[4]", "result": 35700, "unit": "ng/mL"}, {"measurement": "Tmax", "setting": "[4]", "result": 2, "unit": "h"}, {"measurement": "half-life", "setting": "[4]; read-out: T½ (converted)", "result": 2.5, "unit": "h"}]}
